Results as given in US9757393B2 (priority 2015, dated 2017).

Experiments:
HFD-fed C57BL/6J mice [1] = assay: Blood glucose, HbA1c, blood lipids, insulin and leptin levels in HFD-fed mice; assay type: in vivo; details: for Blood Profiles FFA / Blood Profiles HDL-C / Blood Profiles HbA1c / Blood Profiles LDL-C: oral gavage daily for 4 weeks
Method: (§1) Experimental Animals: the experiments are conducted under the guidelines of the Institutional Animal Care and Use Committee of Central Taiwan University of Science and Technology. As previously described, four-week-old male C57BL/6J mice (n=63) is purchased from the National Laboratory Animal Breeding and Research Center, Ministry of Science and Technology. After 1-week of acclimatization, mice are designed to initiate the study, and the study lasts for 12 weeks. […] The CON group and high-fat control (HF) group are given with vehicle only. The low-fat diet consisted of fat 10%, whereas the high-fat diet (HFD) consisted of fat 45% (of total energy, % kcal). The compositions of the experimental diets are shown as described. At the end of the study, food is derived from the animals (from 10 p.m. to 10 a.m.). On the next day, the mice are sacrificed, and blood and tissue are collected for analysis. Livers, skeletal muscles, and white adipose tissues (WATs) (including epididymal, mesenteric and retroperitoneal WAT) are excised and weighed, and then immediately stored in a freezer at −80° C. Heparin (30 units/mL) (Sigma) is added to blood samples. Plasma samples are collected by centrifugation at 1600 g for 15 min at 4° C. within 30 min, and plasma is obtained for insulin and leptin level analysis.
Blood Glucose and HbA1c Levels. Blood samples (0.8 mL) are collected from the retro-orbital sinuses of fasting mice, and glucose level is measured by the glucose oxidase method (model 1500; Sidekick Glucose Analyzer; YSI Inc., Yellow Springs, Ohio, USA). Percent HbA1c is detected with a Hemoglobin A1c kit (BioSystems S.A., Barcelona, Spain). Plasma triglycerides (TG), total cholesterol (TC), free fatty acids (FFA), high-density lipoprotein cholesterol (HDL-C), and low density lipoprotein cholesterol (LDL-C) are determined using commercial assay kits (Triglycerides-E test, Cholesterol-E test, and FFA-C test, Wako Pure Chemical, Osaka, Japan; HDL-C-test and LDL-C-test, Roche Diagnostics GmbH, Indianapolis, USA) according to their instructions. A mouse insulin ELISA kit (Sibayagi, Gunma, Japan) and mouse leptin ELISA kit (Morinaga, Yokohama, Japan) are used to measure blood insulin and leptin levels, respectively.

HFD-fed C57BL/6J mice [2] = assay: Hepatic lipid in HFD-fed mice; assay type: in vivo; details: oral gavage daily for 4 weeks
Method: as §1
Blood Lipid and Hepatic Lipid. Hepatic lipids are extracted as previously described. Liver sample (0.375 g) is homogenized with 1 mL of distilled water for 5 min for the hepatic lipid extraction and analyzed using a triglycerides kit as used for serum lipids.

HFD-fed C57BL/6J mice [3] = assay: Body weight, food intake and tissue weight in HFD-fed mice; assay type: in vivo; details: oral gavage daily for 4 weeks
Method: as §1
Body Weight, Food Intake and Tissue Weight. Throughout the embodiment, body weight and food intake are daily recorded at the same time. Body weight gain is defined as the difference between 1 day and the next day. The pellet food is weighed and placed in a cage food container. After 24 h, the remaining food is weighed and the crumbs are collected as much as possible. Based on the difference between 1 day and the next day, the daily food intake is calculated.

HFD-fed C57BL/6J mice [4] = assay: Histopathology examination of epididymal WAT and liver tissue; assay type: in vivo; details: oral gavage daily for 4 weeks
Method: as §1
A portion of the collected epididymal WAT and liver tissue is fixed with formalin (200 g/kg) neutral buffered solution and embedded in paraffin. Sections (8 μm) are cut and stained with hematoxylin and eosin. A microscope (Leica, DM2500) and Leica Digital camera (DFC-425-C) are used for microscopic examination and images taken, respectively.

membrane GLUT4 = assay: Western blotting of membrane GLUT4 in skeletal muscle; assay type: in vivo, C57BL/6J mice; details: HFD-fed mice, 10 mg/kg/day
Method: as §1
Protein extractions and immunoblots for the determination of membrane GLUT4, phospho-AMPK (Thr172), and phospho-Akt (Ser 473) proteins are carried out on frozen skeletal muscle and liver tissue from mice, which follows a previous paper. Additionally, membrane GLUT4 is carried out on frozen skeletal muscle from mice, and the total membrane fractions are collected with buffer and centrifuged as a previously described. The protein contents of membrane GLUT4, phospho-AMPK, phospho-Akt, total AMPK, and total Akt are detected by western blotting. Western blotting has been determined as described elsewhere. Subsequently, antibodies are detected using horseradish peroxidase linked to a goat anti-IgG rabbit secondary antibody and visualized using an ECL system. Membrane GLUT4, structural proteins GAPDH and β-actin are purchased from Santa Cruz Biotechnology (Santa Cruz, Calif., USA); phospho-AMPK was obtained from Abcam Inc. (Cambridge, Mass., USA); phospho-Akt, total AMPK, and total Akt are from Cell Signaling Technology, Inc. (Danver Mass., USA); the BCA protein assay kit is from Thermo Scientific (Rockford, Ill., USA); and the ECL reagent kit is from GE Healthcare BioSciences (Buckinghamshire, UK). The secondary antibody antirabbit is from Jackson ImmunoResearch Laboratories, Inc. (West Grove, Pa., USA). The density blotting is analyzed using Alpha Easy FC software (Alpha Innotech Corp., Randburg, South Africa). Structural proteins GAPDH and β-actin are obtained by stripping the nitrocellulose membrane proteins of liver and skeletal muscle, respectively.

CC(C)OC(=O)C(C)(C)Oc1ccc(C(=O)c2ccc(Cl)cc2)cc1 [Feno, fenofibrate, reference compound]
decrease of the circulating TG level (HFD-fed C57BL/6J mice [1]; 250 mg/kg/day): 47.9%
Blood Profiles FFA (HFD-fed C57BL/6J mice [1]; 250 mg/kg/day): 0.94 ± 0.08 meq/L
Blood Profiles HDL-C (HFD-fed C57BL/6J mice [1]; 250 mg/kg/day): 80.3 ± 4.5 mg/dL
Blood Profiles HbA1c (HFD-fed C57BL/6J mice [1]; 250 mg/kg/day): 6.4 ± 0.7 %
Blood Profiles LDL-C (HFD-fed C57BL/6J mice [1]; 250 mg/kg/day): 105.8 ± 10.4 mg/dL
Liver Lipids total lipid (HFD-fed C57BL/6J mice [2]; 250 mg/kg/day): 63.8 ± 4.7 mg/g
Liver Lipids triacylglycerol (HFD-fed C57BL/6J mice [2]; 250 mg/kg/day): 48.4 ± 5.6 µmol/g
Absolute Tissue Weight BAT (HFD-fed C57BL/6J mice [3]; 250 mg/kg/day): 0.142 ± 0.012 g
Absolute Tissue Weight EWAT (HFD-fed C57BL/6J mice [3]; 250 mg/kg/day): 0.924 ± 0.069 g
Absolute Tissue Weight Liver (HFD-fed C57BL/6J mice [3]; 250 mg/kg/day): 1.046 ± 0.033 g
Absolute Tissue Weight MWAT (HFD-fed C57BL/6J mice [3]; 250 mg/kg/day): 0.295 ± 0.009 g
Absolute Tissue Weight RWAT (HFD-fed C57BL/6J mice [3]; 250 mg/kg/day): 0.249 ± 0.028 g
Absolute Tissue Weight Skeletal muscle (HFD-fed C57BL/6J mice [3]; 250 mg/kg/day): 0.569 ± 0.069 g
weight gain (HFD-fed C57BL/6J mice [3]; 250 mg/kg/day): 0.69 ± 0.63 g
average area of adipocytes (epididymal WAT) (HFD-fed C57BL/6J mice [4]; 250 mg/kg/day): 4175.4±322.9 μm2

CN(CCOc1ccc(CC2SC(=O)NC2=O)cc1)c1ccccn1 (stereo not drawn) [Rosi, rosiglitazone, reference compound]
Blood Profiles FFA (HFD-fed C57BL/6J mice [1]; 10 mg/kg/day): 1.00 ± 0.09 meq/L
Blood Profiles HDL-C (HFD-fed C57BL/6J mice [1]; 10 mg/kg/day): 73.1 ± 5.8 mg/dL
Blood Profiles HbA1c (HFD-fed C57BL/6J mice [1]; 10 mg/kg/day): 6.2 ± 0.4 %
Blood Profiles LDL-C (HFD-fed C57BL/6J mice [1]; 10 mg/kg/day): 86.7 ± 7.7 mg/dL
Liver Lipids total lipid (HFD-fed C57BL/6J mice [2]; 10 mg/kg/day): 65.1 ± 5.3 mg/g
Liver Lipids triacylglycerol (HFD-fed C57BL/6J mice [2]; 10 mg/kg/day): 44.5 ± 3.2 µmol/g
Absolute Tissue Weight BAT (HFD-fed C57BL/6J mice [3]; 10 mg/kg/day): 0.175 ± 0.018 g
Absolute Tissue Weight EWAT (HFD-fed C57BL/6J mice [3]; 10 mg/kg/day): 0.813 ± 0.069 g
Absolute Tissue Weight Liver (HFD-fed C57BL/6J mice [3]; 10 mg/kg/day): 0.816 ± 0.038 g
Absolute Tissue Weight MWAT (HFD-fed C57BL/6J mice [3]; 10 mg/kg/day): 0.257 ± 0.019 g
Absolute Tissue Weight RWAT (HFD-fed C57BL/6J mice [3]; 10 mg/kg/day): 0.244 ± 0.042 g
Absolute Tissue Weight Skeletal muscle (HFD-fed C57BL/6J mice [3]; 10 mg/kg/day): 0.737 ± 0.094 g
weight gain (HFD-fed C57BL/6J mice [3]; 10 mg/kg/day): 1.71 ± 0.56 g
enhancement of muscular membrane GLUT4 protein (membrane GLUT4): ~2.1 fold
average area of adipocytes (epididymal WAT) (HFD-fed C57BL/6J mice [4]; 10 mg/kg/day): 5598.6±162.7 μm2
